The values that follow come from patent publication US10758534B2 (Vertex Pharmaceuticals Incorporated, priority 2014, dated 2020).

T1 sequence (P13569 with tags, fused parts or gaps DEL508-508): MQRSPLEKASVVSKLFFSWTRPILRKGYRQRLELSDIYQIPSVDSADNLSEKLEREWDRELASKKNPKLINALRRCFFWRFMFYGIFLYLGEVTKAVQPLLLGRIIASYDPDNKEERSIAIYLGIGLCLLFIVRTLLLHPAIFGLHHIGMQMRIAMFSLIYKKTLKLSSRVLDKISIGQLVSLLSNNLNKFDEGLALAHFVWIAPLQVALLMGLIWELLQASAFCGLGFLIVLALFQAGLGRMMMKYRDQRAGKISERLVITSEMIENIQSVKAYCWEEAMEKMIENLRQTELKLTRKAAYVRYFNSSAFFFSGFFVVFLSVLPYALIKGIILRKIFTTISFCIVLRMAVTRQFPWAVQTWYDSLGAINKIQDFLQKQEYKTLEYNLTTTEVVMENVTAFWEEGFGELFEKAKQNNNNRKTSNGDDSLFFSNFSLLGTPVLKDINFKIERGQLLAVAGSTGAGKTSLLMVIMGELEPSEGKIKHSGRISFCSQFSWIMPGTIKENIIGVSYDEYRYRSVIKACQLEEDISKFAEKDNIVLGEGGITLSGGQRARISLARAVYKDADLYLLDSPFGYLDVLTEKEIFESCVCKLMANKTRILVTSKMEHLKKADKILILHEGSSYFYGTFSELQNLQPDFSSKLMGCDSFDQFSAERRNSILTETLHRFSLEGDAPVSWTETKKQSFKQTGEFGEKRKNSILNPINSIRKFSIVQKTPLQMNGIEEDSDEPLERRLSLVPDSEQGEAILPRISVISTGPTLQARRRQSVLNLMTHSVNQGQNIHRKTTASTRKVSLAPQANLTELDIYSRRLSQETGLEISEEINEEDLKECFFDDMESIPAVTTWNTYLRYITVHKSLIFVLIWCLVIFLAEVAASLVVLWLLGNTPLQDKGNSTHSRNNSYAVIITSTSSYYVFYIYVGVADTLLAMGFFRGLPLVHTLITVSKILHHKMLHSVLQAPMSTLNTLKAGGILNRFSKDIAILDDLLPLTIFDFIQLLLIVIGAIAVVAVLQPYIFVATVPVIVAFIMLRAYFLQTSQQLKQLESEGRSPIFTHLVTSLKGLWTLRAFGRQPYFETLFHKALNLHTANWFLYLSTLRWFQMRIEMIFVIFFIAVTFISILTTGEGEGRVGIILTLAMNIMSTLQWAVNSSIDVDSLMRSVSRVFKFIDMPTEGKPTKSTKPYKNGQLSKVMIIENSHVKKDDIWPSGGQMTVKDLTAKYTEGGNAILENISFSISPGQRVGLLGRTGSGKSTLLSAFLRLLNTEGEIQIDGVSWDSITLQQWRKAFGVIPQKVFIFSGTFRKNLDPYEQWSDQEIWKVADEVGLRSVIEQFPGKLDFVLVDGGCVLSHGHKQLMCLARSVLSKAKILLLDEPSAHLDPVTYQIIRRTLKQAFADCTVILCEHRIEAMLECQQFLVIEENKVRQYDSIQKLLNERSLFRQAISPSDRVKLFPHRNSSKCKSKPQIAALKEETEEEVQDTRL

One experiment addresses T1, F508del (Homo sapiens, UniProt P13569, DEL508-508).
T1 construct: expressed in transfected cells
The experiment in a line: Protocol 2: FRET membrane potential optical assay (VIPR), identification of correction compounds. The format is cell-based. To be noted: F508del CFTR modulator activity; compounds of Table 1; read-out: EC30. In outline:
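Correction of the F508del trafficking defect is scored as forskolin (10 μM)/genistein (20 μM)-stimulated Cl^− efflux in NIH3T3 mouse fibroblasts after a 16 hr, 37° C. compound exposure. Depolarization was followed optically using voltage-sensing FRET dyes.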
What is called EC30 is the concentration at which the effect reaches the 30% level. `CC1CN(c2ncc(-c3ccc(C(C)(C)C)cc3)cc2C(=O)NS(=O)(=O)c2cccc(N)n2)C(C)(C)C1` (stereo not drawn) [Compound 2463, N-[(6-amino-2-pyridyl)sulfonyl]-5-(4-tert-butylpenyl)-2-(2,2,4-trimethylpyrrolidin-1-yl)pyridine-3-carboxamide]: the 30% effect concentration (EC30) was below 3000 nM.
On the same count and under the same terms, the result for `CC1CN(c2ncccc2C(=O)NS(=O)(=O)c2cccc(Oc3cccc(F)c3)n2)C(C)(C)C1` (stereo not drawn) [Compound 2332, N—[[6-(3-fluorophenoxy)-2-pyridyl]sulfonyl]-2-(2,2,4-trimethylpyrrolidin-1-yl)pyridine-3-carboxamide] reads below 3000 nM.
The same measure, in the same setting: the result for `CC(C)COc1cc(F)cc(-c2ccc(C(=O)NS(=O)(=O)N3CC(O)CC(F)(F)C3)c(N3C[C@@H](C)CC3(C)C)n2)c1` (stereo partly drawn) [Compound 2508, N-[(3,3-difluoro-5-hydroxy-1-piperidyl)sulfonyl]-6-(3-fluoro-5-isobutoxy-phenyl)-2-[(4S)-2,2,4-trimethylpyrrolidin-1-yl]pyridine-3-carboxamide] reads below 3000 nM; that for `COc1cc(-c2ccc(C(=O)NS(=O)(=O)c3cccnc3N)c(N3C[C@@H](C)CC3(C)C)n2)ccc1O` [Compound 2614, N-[(2-amino-3-pyridyl)sulfonyl]-6-(4-hydroxy-3-methoxy-phenyl)-2-[(4S)-2,2,4-trimethylpyrrolidin-1-yl]pyridine-3-carboxamide], 3000 to 10000 nM; that for `CC1CN(c2ncccc2C(=O)NS(=O)(=O)c2cccc(N3CCOCC3)n2)C(C)(C)C1` (stereo not drawn) [Compound 2464, N-[(6-morpholino-2-pyridyl)sulfonyl]-2-(2,2,4-trimethylpyrrolidin-1-yl)pyridine-3-carboxamide], 3000 to 10000 nM.
The same measure, in the same setting: the result for `CC(C)COc1cc(F)cc(-c2ccc(C(=O)NS(=O)(=O)c3cccc(N)n3)c(NCC3CCCCC3)n2)c1` [Compound 2375, N-[(6-amino-2-pyridyl)sulfonyl]-2-(cyclohexylmethylamino)-6-(3-fluoro-5-isobutoxy-phenyl)pyridine-3-carboxamide] reads 3000 to 10000 nM; that for `CC1CN(c2ncccc2C(=O)NS(=O)(=O)c2cccc(Oc3ccc4ccccc4c3)n2)C(C)(C)C1` (stereo not drawn) [Compound 2611, N—[[6-(2-naphthyloxy)-2-pyridyl]sulfonyl]-2-(2,2,4-trimethylpyrrolidin-1-yl)pyridine-3-carboxamide], below 3000 nM.
`CC1CN(c2ncccc2C(=O)NS(=O)(=O)c2cccc(OCc3cnn(-c4ccccc4)c3)n2)C(C)(C)C1` (stereo not drawn) [Compound 2111, N—[[6-[(1-phenylpyrazol-4-yl)methoxy]-2-pyridyl]sulfonyl]-2-(2,2,4-trimethylpyrrolidin-1-yl)pyridine-3-carboxamide]: the 30% effect concentration (EC30) is below 3000 nM.
Still for that read-out and setting: the result for `CC(C)COc1cc(F)cc(-c2ccc(C(=O)NS(=O)(=O)c3cccc(N)n3)c(N3CC(C)CC34CCC4)n2)c1` (single isomer, unassigned) [Compound 2269, N-[(6-amino-2-pyridyl)sulfonyl]-6-(3-fluoro-5-isobutoxy-phenyl)-2-(6-methyl-8-azaspiro[3.4]octa N-8-yl)pyridine-3-carboxamide] reads below 3000 nM.
Still for that read-out and setting: then `COc1c(F)cc(F)cc1-c1ccc(C(=O)NS(=O)(=O)c2cccnc2N)c(N2C[C@@H](C)CC2(C)C)n1` [Compound 2006, N-[(2-amino-3-pyridyl)sulfonyl]-6-(3,5-difluoro-2-methoxy-phenyl)-2-[(4S)-2,2,4-trimethylpyrrolidin-1-yl]pyridine-3-carboxamide], with below 3000 nM; and `Cc1ccc(F)cc1-c1ccc(C(=O)NS(=O)(=O)c2ccc[nH]c2=O)c(N2C[C@@H](C)CC2(C)C)n1` [Compound 2067, 6-(5-fluoro-2-methyl-phenyl)-N-[(2-oxo-1H-pyridin-3-yl)sulfonyl]-2-[(4S)-2,2,4-trimethylpyrrolidin-1-yl]pyridine-3-carboxamide], with below 3000 nM.
With `COc1cccc(Oc2cccc(S(=O)(=O)NC(=O)c3cccnc3N3CC(C)CC3(C)C)n2)c1` (stereo not drawn) [Compound 2551, N—[[6-(3-methoxyphenoxy)-2-pyridyl]sulfonyl]-2-(2,2,4-trimethylpyrrolidin-1-yl)pyridine-3-carboxamide], the EC30 is below 3000 nM.
Same read-out and setting: the result for `COc1ccc(COc2cccc(S(=O)(=O)NC(=O)c3ccc(C(C)(C)C)nc3N3CC(C)CC3(C)C)n2)cc1` (stereo not drawn) [Compound 2713] reads below 3000 nM; that for `Cc1cccc(CNc2cccc(S(=O)(=O)NC(=O)c3cccnc3N3CC(C)CC3(C)C)n2)c1` (stereo not drawn) [Compound 2391, N—[[6-(m-tolylmethylamino)-2-pyridyl]sulfonyl]-2-(2,2,4-trimethylpyrrolidin-1-yl)pyridine-3-carboxamide], below 3000 nM; that for `CC1CN(c2ncccc2C(=O)NS(=O)(=O)c2cccc(Nc3ccc(-c4ccccc4)cc3)n2)C(C)(C)C1` (stereo not drawn) [Compound 2023, N—[[6-(4-phenylanilino)-2-pyridyl]sulfonyl]-2-(2,2,4-trimethylpyrrolidin-1-yl)pyridine-3-carboxamide], below 3000 nM.
Still for that read-out and setting: then `COC(=O)N1CCN(c2cccc(S(=O)(=O)NC(=O)c3cccnc3N3CC(C)CC3(C)C)n2)CC1` (stereo not drawn) [Compound 2506, methyl 4-[6-[[2-(2,2,4-trimethylpyrrolidin-1-yl)pyridine-3-carbonyl]sulfamoyl]-2-pyridyl]piperazine-1-carboxylate], with 3000 to 10000 nM.
Same read-out and setting: the result for `CC(C)[C@@H](C)Oc1nc(N2C[C@@H](C)CC2(C)C)c(C(=O)NS(=O)(=O)c2cccc(N)n2)cc1F` [Compound 2020, N-[(6-amino-2-pyridyl)sulfonyl]-6-[(1R)-1,2-dimethylpropoxy]-5-fluoro-2-[(4S)-2,2,4-trimethylpyrrolidin-1-yl]pyridine-3-carboxamide] reads below 3000 nM.

The same experiment, now with this note: Table 3; compounds of Table 1 as modulators of CFTR activity; protocol not stated.
As to `Cc1cccc(C)c1Cn1nc(C2CCCC2)cc1C(=O)NS(=O)(=O)c1cccc(N)c1` [Compound 105, N-(3-aminophenyl)sulfonyl-5-cyclopentyl-2-[(2,6-dimethylphenyl)methyl]pyrazole-3-carboxamide], the EC30 entry is recorded as “+++ (“+++” means <3 uM)”.
The same measure, in the same setting: the result for `Cc1ccc(-c2nc(C(C)(C)C)ccc2C(=O)NS(=O)(=O)c2ccccc2)cc1` [Compound 74, N-(benzenesulfonyl)-6-tert-butyl-2-(p-tolyl)pyridine-3-carboxamide] reads “+++ (“+++” means <3 uM)”; that for `CC(C)COc1cccc(-c2ccc(C(=O)NS(=O)(=O)c3cccc(N)n3)c(N3CCC(C)CC3)n2)c1` [Compound 777, N-[(6-amino-2-pyridyl)sulfonyl]-6-(3-isobutoxyphenyl)-2-(4-methyl-1-piperidyl)pyridine-3-carboxamide], “+++ (“+++” means <3 uM)”.
On to `Cc1ccc(-c2nc(C(C)(C)C)ccc2C(=O)NS(=O)(=O)c2ccc(N)cc2)cc1` [Compound 297, N-(4-aminophenyl)sulfonyl-6-tert-butyl-2-(p-tolyl)pyridine-3-carboxamide], for which the 30% effect concentration (EC30) entry is “++ (“++” means between 3 uM and 10 uM)”.
On to `Cc1cc(C)c(CN2Cc3ccccc3C2C(=O)NS(=O)(=O)c2cc(N)ccn2)c(C)c1` (stereo not drawn) [Compound 32, N-[(4-amino-2-pyridyl)sulfonyl]-2-[(2,4,6-trimethylphenyl)methyl]isoindoline-1-carboxamide], for which the EC30 entry was “++ (“++” means between 3 uM and 10 uM)”.
The same measure, in the same setting: the result for `CC(C)Oc1ccc(-c2ccc(C(=O)NS(=O)(=O)c3cccc(N)n3)c(N3CCCC3c3ccccc3)n2)cn1` (stereo not drawn) [Compound 509, N-[(6-amino-2-pyridyl)sulfonyl]-6-(6-isopropoxy-3-pyridyl)-2-(2-phenylpyrrolidin-1-yl)pyridine-3-carboxamide] reads “+++ (“+++” means <3 uM)”; that for `Cc1cc(C)c(Oc2nc(C(C)(C)C)ccc2C(=O)NS(=O)(=O)c2ccc[nH]c2=O)c(C)c1` [Compound 51, 6-tert-butyl-N-[(2-oxo-1H-pyridin-3-yl)sulfonyl]-2-(2,4,6-trimethylphenoxy)pyridine-3-carboxamide], “+++ (“+++” means <3 uM)”.
On the same count and under the same terms, the result for `COc1c(F)cc(Cl)cc1-c1cc(C(=O)NS(=O)(=O)c2ccccc2)n(Cc2c(C)cccc2C)n1` [Compound 379, N-(benzenesulfonyl)-5-(5-chloro-3-fluoro-2-methoxy-phenyl)-2-[(2,6-dimethylphenyl)methyl]pyrazole-3-carboxamide] reads “+++ (“+++” means <3 uM)”.
As to `CC(C)Oc1ccc(-c2nc(N3[C@H](C)CC[C@@H]3C)c(C(=O)NS(=O)(=O)c3cccc(N)n3)cc2Br)cn1` [Compound 390, N-[(6-amino-2-pyridyl)sulfonyl]-5-bromo-2-[(2S,5R)-2,5-dimethylpyrrolidin-1-yl]-6-(6-isopropoxy-3-pyridyl)pyridine-3-carboxamide], the concentration for an effect of 30% (EC30) result was “+++ (“+++” means <3 uM)”.
Same read-out and setting: the result for `Cc1cc(C)c(Oc2nc(-c3ccccc3F)ccc2C(=O)NS(=O)(=O)c2cccc(N)n2)c(C)c1` [Compound 463, N-[(6-amino-2-pyridyl)sulfonyl]-6-(2-fluorophenyl)-2-(2,4,6-trimethylphenoxy)pyridine-3-carboxamide] reads “++ (“++” means between 3 uM and 10 uM)”.
The same measure, in the same setting: the result for `Cc1cc(C)c(Oc2cc(C(C)(C)C)ccc2C(=O)NS(=O)(=O)c2cccc(N)n2)c(C)c1` [Compound 102, N-[(6-amino-2-pyridyl)sulfonyl]-4-tert-butyl-2-(2,4,6-trimethylphenoxy)benzamide] reads “+++ (“+++” means <3 uM)”; that for `Cc1cc(C(C)(C)C)cc(C)c1Cn1nc(C(C)(C)C)cc1C(=O)NS(=O)(=O)c1cccc(N)c1` [Compound 156, N-(3-aminophenyl)sulfonyl-5-tert-butyl-2-[(4-tert-butyl-2,6-dimethyl-phenyl)methyl]pyrazole-3-carboxamide], “+++ (“+++” means <3 uM)”.
In the case of `CN=S(=O)(NC(=O)c1ccc(C(C)(C)C)nc1Oc1c(C)cc(C)cc1C)c1cccc(N)c1` (stereo not drawn) [Compound 568, N—[S-(3-aminophenyl)-N-methyl-sulfonimidoyl]-6-tert-butyl-2-(2,4,6-trimethylphenoxy)pyridine-3-carboxamide], the EC30 entry was “+++ (“+++” means <3 uM)”.
